According to patent US11951113B2, “Synergestic combination composition comprising a steroidal saponin, a first polyphenolic compound and a second polyphenolic compound” (NEURALIA, priority 2018, dated 2024):

Tested on: primary cortical neurons injured by glutamate
Test: Neuroprotection of primary cortical neurons injured by glutamate: neuron survival and neurite network (MAP-2 staining)
Type: cell-based, rat
Conditions: for effect on neuritic network / effect on neuron survival: glutamate 40 μM
Method: Rat cortical neurons were cultured as described by Singer et al., (J. Neuroscience, (1999), 19(7), 2455-2463) and Callizot et al. (J. Neurosc., (2013), Res. 91(5), 706-716).
Pregnant females (Wistar; JanvierLabs, St Berthevin, France) at 15 days of gestation were killed by cervical dislocation. Foetuses were collected and immediately placed in ice-cold L15 Leibovitz medium (Pan Biotech, Aidenbach, Germany) with a 2% penicillin (10,000 U/ml) and streptomycin (10 mg/ml) solution (PS; Pan Biotech, Aidenbach, Germany) and 1% bovine serum albumin (BSA; Pan Biotech, Aidenbach, Germany). Cortex was treated for 20 min at 37° C. with a trypsin-EDTA (Pan Biotech, Aidenbach, Germany) solution at a final concentration of 0.05% trypsin and 0.02% EDTA. The dissociation was stopped by addition of Dulbecco's modified Eagle's medium (DMEM) with 4.5 g/liter of glucose (Pan Biotech, Aidenbach, Germany), containing DNAse I grade II (final concentration 0.5 mg/ml; Pan Biotech, Germany) and 10% fetal calf serum (FCS; Invitrogen, Cergy Pointoise, France). Cells were mechanically dissociated by three forced passages through the tip of a 10-ml pipette. Cells were then centrifuged at 515 g for 10 min at 4° C. The supernatant was discarded, and the pellet was resuspended in a defined culture medium consisting of Neurobasal medium (Invitrogen, Cergy Pointoise, France) with a 2% solution of B27 supplement (Invitrogen, Cergy Pointoise, France), 2 mmol/liter of L-glutamine (Pan Biotech, Aidenbach, Germany), 2% of PS solution, and 10 ng/ml of brain-derived neurotrophic factor (BDNF; Pan Biotech, Aidenbach, Germany). Viable cells were counted in a Neubauer cytometer, using the trypan blue exclusion test. The cells were seeded at a density of 30,000 per well in 96-well plates precoated with poly-L-lysine (Corning Biocoat, Tewksbury, USA) and were cultured at 37° C. in an air (95%)-CO2 (5%) incubator. The medium was changed every 2 days. The cortical neurons were intoxicated with glutamate solutions (see below) after 13 days of culture.
On day 13, glutamate (Sigma Aldrich, Lyon, France) was added into cell culture to a final concentration of 40 μM diluted in control medium in presence or absence of test compounds for 20 min. After 20 min, the cells were washed-out and new fresh medium containing or not NSPXX-E2 or NSPXX-E1 extracts was added for 48 h additional time.
After 48 hours of glutamate intoxication, cells were fixed by a cold solution of ethanol (95%, Sigma) and acetic acid (5%, Sigma) for 5 min at −20° C. After permeabilization with 0.1% of saponin (Sigma), cells were incubated for 2 h with mouse monoclonal antibody anti microtubule-associated-protein 2 (MAP-2; Sigma) at dilution of 1/400 in PBS (Pan biotech) containing 1% foetal calf serum (Invitrogen) and 0.1% of saponin.
(§1) For each condition 6 wells were assessed, 30 pictures per well were taken using MetaXpress (molecular device) with 20× magnification (30 pictures at X20 representing ˜80% of the total well surface), to assess neurite network (MAP-2 staining). Analysis of picture was done using MetaXpress custum module editor software (molecular device), the total neurite length per picture was recorded). A mean neurite length of the ten pictures was automatically calculated per well, then one data was provided per well (total of 6 raw data were provided per condition).
as §1, with “magnification” for “magnification (30 pictures at X20 representing ˜80% of the total well surface),”, “cell bodies” for “neurite network”, “number of neurons” for “total neurite length”, “recorded.” for “recorded).”, “of neuron number” for “neurite length”
All values were expressed as mean+/−s.e.mean. […]

## C[C@@H]1CC[C@@]2(OC1)O[C@H]1C[C@H]3[C@@H]4CC=C5C[C@@H](O[C@@H]6O[C@H](CO)[C@@H](O[C@@H]7O[C@@H](C)[C@H](O)[C@@H](O)[C@H]7O)[C@H](O)[C@H]6O[C@@H]6O[C@@H](C)[C@H](O)[C@@H](O)[C@H]6O)CC[C@]5(C)[C@H]4CC[C@]3(C)[C@H]1[C@@H]2C [DIOS, dioscin]
6.3 nM-630 nM, 20 min
  effect on neuritic network: significant protective effect

## C[C@@H]1CC[C@@]2(OC1)O[C@H]1C[C@H]3[C@@H]4CC=C5C[C@@H](O)CC[C@]5(C)[C@H]4CC[C@]3(C)[C@H]1[C@@H]2C [DIOSG, diosgenin]
3 pM-30 pM, 20 min
  effect on neuritic network: significant protective effect
Diosgenin combined with caffeic acid or ferulic acid
  reduction of the concentration of diosgenin compared to diosgenin used alone: 10 fold

## COc1cc(/C=C/C(=O)O)ccc1O [FA, ferulic acid]
1 μM-100 μM, 20 min
  effect on neuritic network: significant protective effect

## O=C(O)c1cc(O)c(O)c(O)c1 [Gallic acid, gallic acid]
Rattus norvegicus, Primary cortical neuron, 20 min
  viability at 10 µM: ~80%
Between 10 pM and 1 μM, 20 min
  effect on neuritic network: significant protective effect

## C[C@H]1CC[C@@]2(OC1)O[C@H]1C[C@H]3[C@@H]4CC[C@@H]5C[C@@H](O)CC[C@]5(C)[C@H]4CC[C@]3(C)[C@H]1[C@@H]2C [SAR, sarsasapogenin]
100 pM-100 nM, 20 min
  effect on neuritic network: protective effect
100 nM, 20 min
  effect on neuron survival: significant protective effect
1 μmol/L or 10 μmol/L
  toxicity for cortical neurons and for neuritic network: toxic
At the highest concentrations tested
  toxicity on cortical neurons: toxic
Between 100 pM and 10 nM, 20 min
  effect on neuritic network: significant protective effect
Sarsasapogenin combined with caffeic acid or ferulic acid
  reduction of the steroidal saponin concentration compared to sarsasapogenin used alone: 10 fold

## O=c1c(O)c(-c2ccc(O)c(O)c2)oc2cc(O)cc(O)c12 [quercetin]
100 nM and 1 μM, glutamate injury
  effect on neurite network: significant protective effect

## catechin
1 nM-1 μM, 20 min
  effect on neuritic network: protective effect
Between 100 nM and 1 μM, 20 min
  effect on neuron survival: significant protective effect
Between 500 nM and 5 μM, 20 min
  effect on neuritic network: significant protective effect
